For three compounds, IC50 results are on record in BindingDB's records for patent US20250346564 (ARase Therapeutics, 2025).

In general, IC50 refers to the midpoint of a concentration-inhibition curve. Read a low IC50 as higher potency.

The target of the experiment is Poly(ADP-ribose) glycohydrolase (Homo sapiens, UniProt Q86W56). Nature of the experiment: Inhibition of PARG TEMU Assay. How it is done: The ability of the compounds of the Examples to inhibit PARG activity in 4. (trifluoromethyl)umbelliferone (TFMU) assay was determined as described below. PARG inhibitors were added into 384 well plate for a 10-point dose response curve at 1:3 dilutions. TFMU PARG substrate and PARG (250 pM or 2 nM) were then added to the plate to initiate enzymatic reaction. After incubation with the reagent, […] was read. IC50 values were calculated using set control points for 100% inhibition as no enzyme and 0% inhibition 250 pM or 2 nM of PARG enzyme.
Sequence of Poly(ADP-ribose) glycohydrolase (Q86W56 whole entry): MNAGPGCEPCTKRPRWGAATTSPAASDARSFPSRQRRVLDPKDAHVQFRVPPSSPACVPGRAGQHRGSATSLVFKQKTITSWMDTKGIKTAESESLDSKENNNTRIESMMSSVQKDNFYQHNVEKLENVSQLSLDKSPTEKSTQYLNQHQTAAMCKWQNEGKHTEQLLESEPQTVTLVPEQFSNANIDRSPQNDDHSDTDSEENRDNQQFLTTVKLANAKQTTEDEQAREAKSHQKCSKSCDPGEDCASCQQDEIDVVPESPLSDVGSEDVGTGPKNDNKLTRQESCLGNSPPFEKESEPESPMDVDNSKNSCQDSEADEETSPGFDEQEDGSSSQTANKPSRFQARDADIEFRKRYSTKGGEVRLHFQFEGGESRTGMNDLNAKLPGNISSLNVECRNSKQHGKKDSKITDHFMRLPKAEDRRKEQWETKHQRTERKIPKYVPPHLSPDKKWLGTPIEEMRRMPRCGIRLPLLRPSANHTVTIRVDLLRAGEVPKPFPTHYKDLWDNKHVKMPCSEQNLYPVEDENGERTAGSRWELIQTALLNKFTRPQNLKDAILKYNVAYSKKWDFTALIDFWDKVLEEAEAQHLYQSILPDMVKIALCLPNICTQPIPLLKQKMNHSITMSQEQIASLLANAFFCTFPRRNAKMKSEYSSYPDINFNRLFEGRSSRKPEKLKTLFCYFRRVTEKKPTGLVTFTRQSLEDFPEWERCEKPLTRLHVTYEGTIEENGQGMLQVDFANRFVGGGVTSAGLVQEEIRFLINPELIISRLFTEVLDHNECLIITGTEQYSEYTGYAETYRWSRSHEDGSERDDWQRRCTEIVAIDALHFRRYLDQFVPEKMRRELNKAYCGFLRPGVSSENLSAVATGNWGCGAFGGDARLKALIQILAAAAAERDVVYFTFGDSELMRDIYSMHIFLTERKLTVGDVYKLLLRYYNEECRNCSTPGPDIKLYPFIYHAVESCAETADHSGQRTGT
`O=C(N1CCCC1)N1CCN(c2cc(S(=O)(=O)NC3(CF)COC3)cc3c2cnn3-c2nnc(C(F)F)s2)CC1` [US20250346564, Example 36] registered an IC50 of under 50 nM.

Compound `CC1(NS(=O)(=O)c2cc(N3CCN(C(=O)N4CCCC4)CC3)c3cnn(-c4nnc(C(F)F)s4)c3c2)COC1` [US20250346564, Example 35] showed an IC50 of under 50 nM.

`CC[C@@H]1C[C@]1(C)NS(=O)(=O)c1ccc2c(c1)c(=O)n(CC)c(=O)n2CC` [US20250346564, Example 13A] had an IC50 of over 5000 nM.
